# Reference: ChEMBL document CHEMBL1201862, “PubChem BioAssay data set” (2004)
# The source made the active and inactive calls.
# Tests used:
# [1] = target: T1, Low molecular weight phosphotyrosine protein phosphatase (Homo sapiens, UniProt P24666); assay type: functional; conditions: read-out: IC50_Mean
# T1 sequence (P24666 whole entry): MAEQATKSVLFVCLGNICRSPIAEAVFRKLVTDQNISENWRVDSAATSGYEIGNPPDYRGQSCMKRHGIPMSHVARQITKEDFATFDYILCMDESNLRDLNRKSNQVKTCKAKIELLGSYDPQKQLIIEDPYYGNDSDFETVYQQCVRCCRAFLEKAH
# [2] = target: T1, Low molecular weight phosphotyrosine protein phosphatase; assay type: functional; conditions: read-out: IC50_Mean; remark: listed apart in the source
# [3] = target: Cytochrome P450 2C19 (Homo sapiens, UniProt P33261); experiment: Cytochrome panel assay with activity outcomes. Panel member name: p450-cyp2c19 Compounds with AC50 equal or less than 10 uM are considered active; assay type: functional; conditions: read-out: AC50
# [4] = target: Cytochrome P450 3A4 (Homo sapiens, UniProt P08684);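 further: CYP3A4 tested as one member of a cytochrome P450 panel screen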
# [5] = target: Cytochrome P450 2C9 (Homo sapiens, UniProt P11712)
# [6] = target: T2, Caspase-3 (Homo sapiens, UniProt P42574); assay type: functional;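 further: Dose-response selectivity test against caspase-3 for candidate inhibitors of sentrin-specific proteases (SENPs)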
# T2 sequence (P42574 whole entry): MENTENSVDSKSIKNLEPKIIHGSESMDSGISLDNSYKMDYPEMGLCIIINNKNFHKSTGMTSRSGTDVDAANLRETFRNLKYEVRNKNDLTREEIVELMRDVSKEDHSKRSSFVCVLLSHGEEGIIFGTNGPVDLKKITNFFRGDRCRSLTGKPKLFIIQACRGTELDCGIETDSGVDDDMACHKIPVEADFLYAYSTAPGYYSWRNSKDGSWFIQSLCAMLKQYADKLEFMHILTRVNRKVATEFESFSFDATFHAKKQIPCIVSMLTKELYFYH
# [7] = target: T3, Sentrin-specific protease 7 (Homo sapiens, UniProt Q9BQF6); assay type: functional;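 further: Luminescence-based dose-response confirmation of ultra-high-throughput screening hits, measuring inhibition of SENP7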
# T3 sequence (Q9BQF6 whole entry): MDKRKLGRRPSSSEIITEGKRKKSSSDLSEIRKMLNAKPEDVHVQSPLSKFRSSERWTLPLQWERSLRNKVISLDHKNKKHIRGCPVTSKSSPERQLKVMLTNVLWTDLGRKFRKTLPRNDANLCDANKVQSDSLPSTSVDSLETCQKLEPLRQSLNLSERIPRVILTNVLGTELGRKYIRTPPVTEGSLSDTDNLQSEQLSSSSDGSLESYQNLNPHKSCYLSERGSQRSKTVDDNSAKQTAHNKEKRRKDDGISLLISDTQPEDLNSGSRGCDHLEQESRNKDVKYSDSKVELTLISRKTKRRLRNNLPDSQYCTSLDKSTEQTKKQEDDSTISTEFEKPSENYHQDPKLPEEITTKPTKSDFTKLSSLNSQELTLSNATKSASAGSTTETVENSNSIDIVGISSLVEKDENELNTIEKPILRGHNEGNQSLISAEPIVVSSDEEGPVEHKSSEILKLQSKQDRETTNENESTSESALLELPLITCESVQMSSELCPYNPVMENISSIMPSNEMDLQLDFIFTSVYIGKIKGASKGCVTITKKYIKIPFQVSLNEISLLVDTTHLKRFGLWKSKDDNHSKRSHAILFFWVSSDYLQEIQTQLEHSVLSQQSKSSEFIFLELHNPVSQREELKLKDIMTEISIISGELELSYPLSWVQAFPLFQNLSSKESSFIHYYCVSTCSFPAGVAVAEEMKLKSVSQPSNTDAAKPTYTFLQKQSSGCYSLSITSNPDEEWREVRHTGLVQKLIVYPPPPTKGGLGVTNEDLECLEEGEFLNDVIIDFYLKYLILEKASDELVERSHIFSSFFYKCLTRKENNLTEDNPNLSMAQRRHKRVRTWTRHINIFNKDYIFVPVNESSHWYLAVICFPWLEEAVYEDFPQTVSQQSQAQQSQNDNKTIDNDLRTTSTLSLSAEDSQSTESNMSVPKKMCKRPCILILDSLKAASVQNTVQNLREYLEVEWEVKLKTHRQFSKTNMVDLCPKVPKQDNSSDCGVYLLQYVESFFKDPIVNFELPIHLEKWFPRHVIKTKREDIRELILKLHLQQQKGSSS
# [8] = target: T4, Sentrin-specific protease 6 (Homo sapiens, UniProt Q9GZR1); assay type: functional;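 further: Luminescence-based dose-response confirmatory assay of SENP6 inhibition, following up an ultra-high-throughput screen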
# T4 sequence (Q9GZR1 whole entry): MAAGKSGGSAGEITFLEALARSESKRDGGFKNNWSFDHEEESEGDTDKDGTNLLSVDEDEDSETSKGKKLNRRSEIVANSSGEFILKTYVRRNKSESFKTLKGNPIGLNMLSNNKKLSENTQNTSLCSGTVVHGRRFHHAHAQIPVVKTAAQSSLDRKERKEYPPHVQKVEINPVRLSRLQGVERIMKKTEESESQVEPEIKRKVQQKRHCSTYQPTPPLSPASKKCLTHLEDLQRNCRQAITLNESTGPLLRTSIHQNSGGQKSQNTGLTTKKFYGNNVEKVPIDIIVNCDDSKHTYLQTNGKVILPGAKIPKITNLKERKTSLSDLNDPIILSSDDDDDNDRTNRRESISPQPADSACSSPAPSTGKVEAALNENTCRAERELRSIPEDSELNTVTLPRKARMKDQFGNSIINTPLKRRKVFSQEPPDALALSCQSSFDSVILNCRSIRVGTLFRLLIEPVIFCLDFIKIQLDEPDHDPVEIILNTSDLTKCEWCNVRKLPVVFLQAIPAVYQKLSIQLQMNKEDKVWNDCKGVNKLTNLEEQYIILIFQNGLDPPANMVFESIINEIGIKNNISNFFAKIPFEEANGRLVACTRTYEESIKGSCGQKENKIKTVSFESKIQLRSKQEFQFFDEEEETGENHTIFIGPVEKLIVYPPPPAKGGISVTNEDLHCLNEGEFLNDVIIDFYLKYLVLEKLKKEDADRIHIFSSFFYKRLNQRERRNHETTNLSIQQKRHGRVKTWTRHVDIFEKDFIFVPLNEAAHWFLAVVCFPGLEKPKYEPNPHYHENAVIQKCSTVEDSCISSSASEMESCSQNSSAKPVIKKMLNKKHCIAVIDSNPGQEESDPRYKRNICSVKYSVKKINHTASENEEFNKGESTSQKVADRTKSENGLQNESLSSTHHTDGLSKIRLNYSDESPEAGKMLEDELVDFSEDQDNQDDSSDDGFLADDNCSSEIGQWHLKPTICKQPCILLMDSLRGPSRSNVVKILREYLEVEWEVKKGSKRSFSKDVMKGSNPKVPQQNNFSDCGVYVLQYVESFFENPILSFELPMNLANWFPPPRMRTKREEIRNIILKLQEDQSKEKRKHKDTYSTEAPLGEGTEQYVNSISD
# [9] = target: T5, Sentrin-specific protease 8 (Homo sapiens, UniProt Q96LD8); assay type: functional;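 further: luminescence read-out of SENP8 inhibition, dose-response confirmation following an ultra-high-throughput screen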
# T5 sequence (Q96LD8 whole entry): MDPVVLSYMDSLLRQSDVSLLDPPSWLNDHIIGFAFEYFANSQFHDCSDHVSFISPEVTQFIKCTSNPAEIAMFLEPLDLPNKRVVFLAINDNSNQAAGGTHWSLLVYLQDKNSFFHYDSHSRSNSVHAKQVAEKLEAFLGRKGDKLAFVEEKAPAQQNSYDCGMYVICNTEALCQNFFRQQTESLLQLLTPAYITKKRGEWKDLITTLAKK
# [10] = target: Adenosylmethionine-8-amino-7-oxononanoate aminotransferase (Mycobacterium tuberculosis, UniProt P9WQ81); experiment: Mycobacterium tuberculosis BioA enzyme inhibitor Measured in Biochemical System Using Plate Reader - 2163-02_Inhibitor_Dose_CherryPick_Activity.; assay type: functional, Mycobacterium tuberculosis UT205
# [11] = target: T6, Apoptotic protease-activating factor 1 (Homo sapiens, UniProt O14727); experiment: SAR analysis of small molecule Activators of Apaf-1 in a Fluorescent assay.; assay type: functional; conditions: read-out: EC50_Mean;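 further: caspase-3 cleavage of fluorogenic Rh110 DEVD substrate downstream of apoptosome activation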
# T6 sequence (O14727 whole entry): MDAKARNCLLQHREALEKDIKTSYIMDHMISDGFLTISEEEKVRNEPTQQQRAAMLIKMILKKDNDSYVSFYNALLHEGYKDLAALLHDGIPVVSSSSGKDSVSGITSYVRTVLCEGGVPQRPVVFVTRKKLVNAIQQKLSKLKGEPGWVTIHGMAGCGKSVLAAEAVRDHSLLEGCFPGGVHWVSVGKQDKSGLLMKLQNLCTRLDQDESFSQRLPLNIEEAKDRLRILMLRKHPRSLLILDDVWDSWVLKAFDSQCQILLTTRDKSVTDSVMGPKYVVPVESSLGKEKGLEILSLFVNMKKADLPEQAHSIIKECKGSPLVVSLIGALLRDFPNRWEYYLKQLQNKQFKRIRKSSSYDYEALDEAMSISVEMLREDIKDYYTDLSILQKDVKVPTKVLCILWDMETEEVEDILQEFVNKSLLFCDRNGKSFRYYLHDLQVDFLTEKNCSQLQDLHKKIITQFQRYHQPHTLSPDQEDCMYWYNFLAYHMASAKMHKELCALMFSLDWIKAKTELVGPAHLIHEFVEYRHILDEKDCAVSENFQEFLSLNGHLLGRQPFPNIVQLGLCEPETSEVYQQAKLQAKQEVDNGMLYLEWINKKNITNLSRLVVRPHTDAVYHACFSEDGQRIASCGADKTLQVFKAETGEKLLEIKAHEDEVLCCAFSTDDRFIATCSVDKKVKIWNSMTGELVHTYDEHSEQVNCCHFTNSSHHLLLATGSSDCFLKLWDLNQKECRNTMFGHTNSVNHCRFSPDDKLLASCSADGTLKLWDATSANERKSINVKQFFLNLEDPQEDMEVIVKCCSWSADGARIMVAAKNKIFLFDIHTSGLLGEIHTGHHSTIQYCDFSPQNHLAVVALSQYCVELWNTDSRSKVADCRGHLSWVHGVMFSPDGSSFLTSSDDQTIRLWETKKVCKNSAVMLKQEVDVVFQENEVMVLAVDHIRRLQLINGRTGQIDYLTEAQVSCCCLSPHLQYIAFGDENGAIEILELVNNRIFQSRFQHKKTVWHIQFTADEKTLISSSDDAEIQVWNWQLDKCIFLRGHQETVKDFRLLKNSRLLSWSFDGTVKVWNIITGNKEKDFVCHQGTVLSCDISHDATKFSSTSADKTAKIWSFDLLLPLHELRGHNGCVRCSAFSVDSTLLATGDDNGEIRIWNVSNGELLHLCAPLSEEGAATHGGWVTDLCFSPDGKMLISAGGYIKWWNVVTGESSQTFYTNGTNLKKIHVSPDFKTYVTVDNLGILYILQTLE
# [12] = NIH-3T3 fibroblast cytotoxicity, dose response, cytotoxicity control, cell-based, fluorescence, Alamar Blue, secondary assay (AID 2327); assay type: functional;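 further: NIH-3T3 mouse fibroblasts cultured with fluconazole at 8 µg/mL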
# [13] = fluconazole-exposed Candida albicans growth modulators – fluorescence, retest, confirmation (AID 2467); assay type: functional, cell-based
# [14] = target: T7, Polyadenylate-binding protein 1 (Homo sapiens, UniProt P11940); experiment: MLLE binding blockers, Cy5 peptide tracer – biochemical, fluorescence polarization, Cy5-PAM2 peptide, secondary, miRNA deadenylation inhibitor project, dose response (AID 602260); assay type: functional; conditions: read-out: IC50_Mean
# [15] = target: T7, Polyadenylate-binding protein 1; experiment: MLLE domain peptide-binding blockers, IC50 – biochemical, fluorescence polarization, FITC-PAM2 peptide, dose response (AID 602259); assay type: functional; conditions: read-out: IC50_Mean
# [16] = target: Aryl hydrocarbon receptor (Homo sapiens, UniProt P35869); conditions: Potency;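 further: confirmatory quantitative high-throughput screen measuring activation of the AhR signaling pathway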
# Chain of Aryl hydrocarbon receptor (P35869 whole entry): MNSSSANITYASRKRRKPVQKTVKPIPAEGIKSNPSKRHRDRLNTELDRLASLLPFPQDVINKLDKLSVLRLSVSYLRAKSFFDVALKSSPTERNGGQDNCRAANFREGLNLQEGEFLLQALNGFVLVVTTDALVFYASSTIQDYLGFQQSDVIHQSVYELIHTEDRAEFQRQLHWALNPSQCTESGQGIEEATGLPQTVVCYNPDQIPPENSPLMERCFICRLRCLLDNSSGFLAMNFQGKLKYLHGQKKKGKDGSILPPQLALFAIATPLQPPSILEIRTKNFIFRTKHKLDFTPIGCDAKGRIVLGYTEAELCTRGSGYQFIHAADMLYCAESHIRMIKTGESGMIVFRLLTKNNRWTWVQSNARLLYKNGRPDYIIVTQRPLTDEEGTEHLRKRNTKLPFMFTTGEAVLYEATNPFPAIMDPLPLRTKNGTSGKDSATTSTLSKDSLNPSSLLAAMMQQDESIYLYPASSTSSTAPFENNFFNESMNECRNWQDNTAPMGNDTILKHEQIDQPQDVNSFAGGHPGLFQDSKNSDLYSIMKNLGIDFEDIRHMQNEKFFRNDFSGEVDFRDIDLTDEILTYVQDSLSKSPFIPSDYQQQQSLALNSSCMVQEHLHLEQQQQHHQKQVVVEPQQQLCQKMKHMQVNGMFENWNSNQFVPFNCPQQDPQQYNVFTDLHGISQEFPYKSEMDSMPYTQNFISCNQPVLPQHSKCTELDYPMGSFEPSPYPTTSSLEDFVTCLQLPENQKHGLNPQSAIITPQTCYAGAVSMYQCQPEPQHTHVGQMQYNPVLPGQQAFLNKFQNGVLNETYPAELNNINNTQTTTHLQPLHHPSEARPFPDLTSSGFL
# T7 sequence (P11940 whole entry, the tested form may be a part): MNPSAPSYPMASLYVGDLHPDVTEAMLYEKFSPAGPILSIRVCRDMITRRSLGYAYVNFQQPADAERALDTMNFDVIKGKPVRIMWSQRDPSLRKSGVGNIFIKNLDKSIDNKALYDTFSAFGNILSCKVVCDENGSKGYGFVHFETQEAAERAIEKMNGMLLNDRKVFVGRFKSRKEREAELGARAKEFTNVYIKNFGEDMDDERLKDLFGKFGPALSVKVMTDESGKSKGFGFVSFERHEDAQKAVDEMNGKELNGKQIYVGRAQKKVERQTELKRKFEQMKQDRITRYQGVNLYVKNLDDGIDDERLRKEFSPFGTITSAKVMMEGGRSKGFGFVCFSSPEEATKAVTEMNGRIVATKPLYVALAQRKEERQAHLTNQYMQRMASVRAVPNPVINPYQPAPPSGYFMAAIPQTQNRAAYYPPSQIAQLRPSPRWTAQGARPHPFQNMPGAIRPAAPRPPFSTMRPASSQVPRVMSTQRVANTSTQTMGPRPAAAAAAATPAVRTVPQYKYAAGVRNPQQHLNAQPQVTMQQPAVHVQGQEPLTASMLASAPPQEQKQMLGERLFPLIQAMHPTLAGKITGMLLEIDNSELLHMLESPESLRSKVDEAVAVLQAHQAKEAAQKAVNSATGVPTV
# Chain of Adenosylmethionine-8-amino-7-oxononanoate aminotransferase (P9WQ81 whole entry): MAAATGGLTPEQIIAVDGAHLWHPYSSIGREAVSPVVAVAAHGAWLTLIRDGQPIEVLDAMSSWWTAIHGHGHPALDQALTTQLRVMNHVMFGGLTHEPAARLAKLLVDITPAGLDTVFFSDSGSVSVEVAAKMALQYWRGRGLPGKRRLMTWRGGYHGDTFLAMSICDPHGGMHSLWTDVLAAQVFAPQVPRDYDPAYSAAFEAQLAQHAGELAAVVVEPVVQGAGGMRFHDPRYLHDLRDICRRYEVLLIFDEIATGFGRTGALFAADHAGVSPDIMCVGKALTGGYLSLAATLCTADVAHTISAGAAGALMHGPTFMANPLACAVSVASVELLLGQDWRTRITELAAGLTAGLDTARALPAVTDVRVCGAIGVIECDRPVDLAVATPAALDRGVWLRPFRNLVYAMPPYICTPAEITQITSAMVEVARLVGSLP
# Chain of Cytochrome P450 2C19 (P33261 whole entry): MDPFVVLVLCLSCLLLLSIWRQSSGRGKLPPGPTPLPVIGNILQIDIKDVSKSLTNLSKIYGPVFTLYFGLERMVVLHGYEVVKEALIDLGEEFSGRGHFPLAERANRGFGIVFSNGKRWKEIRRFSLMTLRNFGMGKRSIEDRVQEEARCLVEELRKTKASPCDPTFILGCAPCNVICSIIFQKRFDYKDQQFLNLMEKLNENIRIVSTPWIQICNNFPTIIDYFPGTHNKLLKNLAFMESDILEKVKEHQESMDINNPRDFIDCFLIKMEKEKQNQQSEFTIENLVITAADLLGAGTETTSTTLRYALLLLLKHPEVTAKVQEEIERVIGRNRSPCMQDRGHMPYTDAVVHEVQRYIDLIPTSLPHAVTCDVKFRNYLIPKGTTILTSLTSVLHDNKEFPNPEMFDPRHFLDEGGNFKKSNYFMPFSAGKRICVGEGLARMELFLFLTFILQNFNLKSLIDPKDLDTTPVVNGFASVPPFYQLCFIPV
# Chain of Cytochrome P450 2C9 (P11712 whole entry): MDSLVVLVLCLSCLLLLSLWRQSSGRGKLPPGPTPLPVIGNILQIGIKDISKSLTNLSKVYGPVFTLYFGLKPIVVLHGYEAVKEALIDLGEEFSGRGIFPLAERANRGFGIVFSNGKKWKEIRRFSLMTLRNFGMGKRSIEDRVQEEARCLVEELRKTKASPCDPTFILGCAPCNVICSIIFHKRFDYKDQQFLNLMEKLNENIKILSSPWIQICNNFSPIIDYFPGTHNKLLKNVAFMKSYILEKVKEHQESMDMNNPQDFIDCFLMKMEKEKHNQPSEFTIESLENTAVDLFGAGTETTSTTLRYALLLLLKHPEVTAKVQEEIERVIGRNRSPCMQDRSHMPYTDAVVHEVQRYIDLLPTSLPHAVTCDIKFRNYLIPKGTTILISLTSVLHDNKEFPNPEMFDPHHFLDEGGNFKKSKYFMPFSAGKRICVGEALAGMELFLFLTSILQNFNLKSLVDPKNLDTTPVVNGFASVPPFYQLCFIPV
# Chain of Cytochrome P450 3A4 (P08684 whole entry): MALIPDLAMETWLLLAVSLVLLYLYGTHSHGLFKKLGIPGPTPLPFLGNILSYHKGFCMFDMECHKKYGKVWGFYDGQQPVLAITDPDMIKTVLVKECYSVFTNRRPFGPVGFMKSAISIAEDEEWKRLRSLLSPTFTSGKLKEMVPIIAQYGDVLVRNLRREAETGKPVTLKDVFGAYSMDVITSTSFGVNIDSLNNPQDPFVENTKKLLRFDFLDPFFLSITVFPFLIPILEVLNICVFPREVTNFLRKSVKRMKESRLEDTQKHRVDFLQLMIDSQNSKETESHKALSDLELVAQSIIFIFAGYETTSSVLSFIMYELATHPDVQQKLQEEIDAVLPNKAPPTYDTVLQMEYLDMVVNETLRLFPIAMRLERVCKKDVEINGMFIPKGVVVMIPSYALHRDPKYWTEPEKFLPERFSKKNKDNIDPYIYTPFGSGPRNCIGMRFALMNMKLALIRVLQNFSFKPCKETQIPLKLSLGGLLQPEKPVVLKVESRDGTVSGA
compound,measurement,setting,value
Cc1ccc(-c2nc(NCc3cccnc3)c3ccccc3n2)cc1,IC50,[1],13.7 µM (active)
same,IC50,[2],8.04 µM (active)
O=C(Nc1cccc(-c2nc3ncccc3o2)c1)c1sc2ccccc2c1Cl,AC50,[3],0.355 µM (inconclusive)
same,IC50,[2],3.81 µM (active)
same,AC50,[4],3.98 µM (inconclusive)
same,AC50,[5],2 µM (inconclusive)
O=C(Oc1ccc(OC(=O)N2CCOCC2)cc1)c1ccccc1,IC50,[6],14.8 µM (active)
same,IC50,[7],14.2 µM (active)
same,IC50,[8],> 100 µM (inactive)
same,IC50,[9],> 100 µM (inactive)
CC(=O)c1ccc(C(=O)N2CCCC(CCC(=O)N(C)CCc3ccccn3)C2)s1 (centres undefined),AC50,[10],12.4 µM (active)
CCOC(=O)c1cnc(SSc2ncc(C(=O)OCC)c(N)n2)nc1N,IC50,[1],14.5 µM (active)
CCS(=O)(=O)c1ccc2c(c1)NC(=O)C(C)(C(=O)O)O2 (centres undefined),EC50,[11],> 100 µM (inactive)
COc1ccc(C)cc1NC(=O)CCS(=O)(=O)c1ccc2c(c1)CC(=O)N2C,EC50,[11],> 100 µM (inactive)
O=C(C1CCOCC1)N1CC[C@@H]2[C@H](CO)Nc3ccc(Br)cc3[C@@H]21,AC50,[10],4.43 µM (active)
Cc1[nH]n(C(N)=S)c(=O)c1/N=N/c1ccc(S(=O)(=O)N2CCCCCC2)cc1,EC50,[12],> 160 µM (inactive)
same,EC50,[13],> 38 µM (not active)
same,IC50,[6],12.9 µM (active)
same,IC50,[7],9.68 µM (active)
same,IC50,[8],15.5 µM (active)
same,IC50,[9],2.52 µM (active)
same,IC50,[14],> 66 µM (inactive)
same,IC50,[15],> 66 µM (inactive)
COP(=S)(OC)Oc1c(Cl)cc(C)cc1Cl [TOLCOFOS-METHYL],AC50,[16],79.4 µM (inconclusive)
